As a reminder, the EC50 is the concentration giving half of the maximal effect. The inhibition is the change of the read-out against control, counted positive when it falls.

Where only a bound is given, the exact number is not on record here.

Here are results for 20 compounds from patent US12421205B2, “GLP-1 receptor agonist” (HYUNDAI PHARM CO., LTD., priority 2019, dated 2025).

One data set has as its target T1, human GLP-1 receptor (Homo sapiens, UniProt P43220).
T1 construct: host or cells: CHO-K1
As to the kind of experiment: cAMP activity test (cAMP dynamic HTRF kit) in CHO-K1/GLP-1 receptor-expressing cells. Type of data set: cell-based. To be noted: cAMP activity, CHO-K1/GLP-1 receptor-expressing cells; read-out: EC50. Here is the method:
The next day, the medium was removed, and a 50 uL of HBSS medium containing 0.1% BSA, 0.5 mM IBMX, and 5 mM HEPES was added to each well. […] The cAMP activity was measured according to the manufacturer's instructions using the cAMP dynamic HTRF kit (Cisbio, 62AM4PEC). After incubation, the medium was discarded, and the cells were lysed. cAMP-d2 and anti-cAMP cryptate conjugate were added thereto and reacted for 3 hours. […] Intracellular cAMP competes with cAMP-d2 for anti-cAMP cryptate, and the measured signal of fluorescence resonance energy transfer (FRET) is inversely proportional to intracellular cAMP.

A further data set addresses T2, hERG (Homo sapiens, UniProt Q12809).
T2 construct: purchased Invitrogen PV5365
As to the kind of experiment: hERG inhibition test (Predictor hERG Fluorescence Polarization assay kit). Type of data set: binding. To be noted: probe kit Tracer (fluorescent hERG ligand), hERG % inhibition at 10 uM, relative to E-4031 and solvent control. As for the experimental part:
To measure the hERG (Human ether-a-go-go-related gene) channel inhibition rate of the compound according to the present invention, the following test was performed using a Predictor hERG Fluorescence Polarization assay kit (Invitrogen, PV5365).
Specifically, a test substance was dissolved in DMSO to prepare a 50 mM solution. A 4 mM solution was prepared by diluting the 50 mM solution with DMSO in a U bottom 96-well plate (SPL, 34096), and was then diluted 100-fold with a test buffer to prepare a 40 uM (4×) solution. The positive control E-4031 (3 mM) provided in the kit was diluted 25-fold with a test buffer to prepare a 120 uM solution) 5 uL of the diluted test substance solution was dispensed into a 384-well assay plate (corning, 3677). hERG Membrane (2×) and Tracer (4×) provided in the kit were respectively added at 10 uL and 5 uL, and then subjected to the reaction at room temperature for 2.5 hours. After completion of the reaction, fluorescence polarization (mP) was measured with a Multimode Plate Reader (Perkin-Elmer, Envision) (excitation wavelength of 531 nm, and emission wavelength 579 nm). The value of the percent inhibitory activity (% inhibition) at 10 uM of each test substance was calculated by the following equation, and the results are shown in Table 2: (% inhibition)=100−{(mP of the compound according to the present invention−E-4031 mP)/(mP of the solvent control−E-4031 mP)}×100

T1 sequence (P43220 24-463): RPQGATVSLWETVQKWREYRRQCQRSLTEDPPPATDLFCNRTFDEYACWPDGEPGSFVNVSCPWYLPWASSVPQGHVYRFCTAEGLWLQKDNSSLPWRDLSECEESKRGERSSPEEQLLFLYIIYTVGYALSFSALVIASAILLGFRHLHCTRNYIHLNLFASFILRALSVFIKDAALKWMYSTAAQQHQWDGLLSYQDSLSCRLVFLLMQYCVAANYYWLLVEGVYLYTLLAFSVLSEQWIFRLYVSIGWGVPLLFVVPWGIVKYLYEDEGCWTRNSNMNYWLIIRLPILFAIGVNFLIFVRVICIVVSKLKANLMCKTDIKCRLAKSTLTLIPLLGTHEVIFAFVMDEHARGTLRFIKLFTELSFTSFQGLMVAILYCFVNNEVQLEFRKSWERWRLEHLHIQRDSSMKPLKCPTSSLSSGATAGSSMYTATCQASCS
T2 sequence (Q12809 whole entry): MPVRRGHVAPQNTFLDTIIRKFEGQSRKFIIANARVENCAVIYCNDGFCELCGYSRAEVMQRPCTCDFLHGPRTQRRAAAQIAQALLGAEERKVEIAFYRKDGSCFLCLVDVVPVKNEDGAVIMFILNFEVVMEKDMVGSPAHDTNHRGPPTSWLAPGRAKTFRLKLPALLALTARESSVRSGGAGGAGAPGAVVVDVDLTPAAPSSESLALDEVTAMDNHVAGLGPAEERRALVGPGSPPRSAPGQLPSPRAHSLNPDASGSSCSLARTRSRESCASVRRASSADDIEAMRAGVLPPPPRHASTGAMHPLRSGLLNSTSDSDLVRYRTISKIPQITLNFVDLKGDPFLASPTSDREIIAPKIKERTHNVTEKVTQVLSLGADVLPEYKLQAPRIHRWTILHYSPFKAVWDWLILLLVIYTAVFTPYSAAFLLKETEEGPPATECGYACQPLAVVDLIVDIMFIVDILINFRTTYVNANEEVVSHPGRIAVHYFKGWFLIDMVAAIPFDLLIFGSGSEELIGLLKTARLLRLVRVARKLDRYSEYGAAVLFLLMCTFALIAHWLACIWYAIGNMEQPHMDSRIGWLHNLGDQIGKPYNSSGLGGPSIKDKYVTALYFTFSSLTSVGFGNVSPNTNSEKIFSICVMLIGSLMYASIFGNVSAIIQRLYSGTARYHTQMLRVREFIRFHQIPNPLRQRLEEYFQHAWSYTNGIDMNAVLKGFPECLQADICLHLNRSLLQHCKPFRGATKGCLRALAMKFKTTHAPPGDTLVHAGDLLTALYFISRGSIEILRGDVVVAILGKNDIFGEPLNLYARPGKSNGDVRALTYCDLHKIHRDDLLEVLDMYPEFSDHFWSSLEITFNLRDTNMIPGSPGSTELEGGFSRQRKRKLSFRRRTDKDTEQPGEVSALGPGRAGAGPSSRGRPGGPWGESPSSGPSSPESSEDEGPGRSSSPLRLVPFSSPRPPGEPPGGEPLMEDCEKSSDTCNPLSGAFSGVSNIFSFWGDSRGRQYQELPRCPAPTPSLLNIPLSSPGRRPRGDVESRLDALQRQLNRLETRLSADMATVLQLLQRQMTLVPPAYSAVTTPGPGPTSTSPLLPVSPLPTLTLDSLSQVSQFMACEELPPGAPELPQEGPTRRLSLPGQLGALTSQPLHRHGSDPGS

On to `N#Cc1ccc(COc2cccc(-c3ccc(Cc4nc5ccc(C(=O)O)cc5n4C[C@@H]4CCCO4)cc3F)n2)c(F)c1` [Example 67, (S)-2-(4-(6-(4-cyano-2-fluorobenzyloxy)pyridin-2-yl)-3-fluorobenzyl)-1-((tetrahydrofuran-2-yl)methyl)-1H-benzo[d]imidazole-6-carboxylic acid], for which the EC50 at human GLP-1 receptor was 11 nM. Moreover, the inhibition at 2.5 h, 10 µM on hERG was 0.85%.
As to `COCCn1c(Cc2ccc(-c3cccc(OCc4ccc(Cl)cc4F)n3)cc2C)nc2ccc(C(=O)O)cc21` [Example 53, 2-(4-(6-(4-chloro-2-fluorobenzyloxy)pyridin-2-yl)-2-methylbenzyl)-1-(2-methoxyethyl)-1H-benzo[d]imidazole-6-carboxylic acid], the EC50 on human GLP-1 receptor was 39 nM. For the same compound, at hERG, the inhibition at 2.5 h, 10 µM was 18.7%.
Turning to `O=C(O)c1ccc2nc(Cn3ccc(-c4cccc(OCc5ccc(Cl)cc5F)n4)cc3=O)n(C[C@@H]3CCCO3)c2c1` [Example 108, (S)-2-((4-(6-(4-chloro-2-fluorobenzyloxy)pyridin-2-yl)-2-oxopyridin-1(2H)-yl)methyl)-1-((tetrahydrofuran-2-yl)methyl)-1H-benzo[d]imidazole-6-carboxylic acid], the EC50 on human GLP-1 receptor turned out to be 130 nM. At hERG, the inhibition at 2.5 h, 10 µM was 4%.
For `COCCn1c(Cc2ccc(-c3cccc(OCc4ccc(Cl)cc4F)c3)cc2F)nc2ccc(C(=O)O)cc21` [Example 36, 2-((3′-(4-chloro-2-fluorobenzyloxy)-3-fluorobiphenyl-4-yl)methyl)-1-(2-methoxyethyl)-1H-benzo[d]imidazole-6-carboxylic acid] the same measures were 88 nM and -10.8%.
As to `COc1cc(-c2cccc(OCc3ccc(Cl)cc3F)n2)ccc1Cc1nc2ccc(C(=O)O)cc2n1CC1CCCO1` (stereo not shown) [Example 63, 2-(4-(6-(4-chloro-2-fluorobenzyloxy)pyridin-2-yl)-2-methoxybenzyl)-1-((tetrahydrofuran-2-yl)methyl)-1H-benzo[d]imidazole-6-carboxylic acid], the half-maximal effective concentration (EC50) on human GLP-1 receptor amounted to 160 nM. In addition, the inhibition at 2.5 h, 10 µM on hERG is -19.6%.
As for `O=C(O)c1ccc2nc(Cc3cc(F)c(-c4cccc(OCc5ccc(Cl)cc5F)n4)cc3F)n(C[C@@H]3CCCO3)c2c1` [Example 116, (S)-2-(4-(6-((4-chloro-2-fluorobenzyl)oxy)pyridin-2-yl)-2,5-difluorobenzyl)-1-((tetrahydrofuran-2-yl)methyl)-1H-benzo[d]imidazole-6-carboxylic acid], the EC50 on human GLP-1 receptor was below 3.2 nM. Moreover, the inhibition at 2.5 h, 10 µM on hERG was 5.86%.
As to `N#Cc1ccc(COc2cc(-c3ccc(Cc4nc5ccc(C(=O)O)cc5n4CC4CCCO4)c(F)c3)ccc2F)c(F)c1` (stereo not shown) [Example 96, 2-((3′-(4-cyano-2-fluorobenzyloxy)-3,4′-difluorobiphenyl-4-yl)methyl)-1-((tetrahydrofuran-2-yl)methyl)-1H-benzo[d]imidazole-6-carboxylic acid], the EC50 at human GLP-1 receptor is 830 nM. For the same compound, the inhibition at 2.5 h, 10 µM at hERG was 5.19%.
`N#Cc1ccc(COc2cccc(-c3ccn(Cc4nc5ccc(C(=O)O)cc5n4CC4CCCO4)c(=O)c3)c2)c(F)c1` (stereo not shown) [Example 107, 2-((4-(3-(4-cyano-2-fluorobenzyloxy)phenyl)-2-oxopyridin-1(2H)-yl)methyl)-1-((tetrahydrofuran-2-yl)methyl)-1H-benzo[d]imidazole-6-carboxylic acid]: the half-maximal effective concentration (EC50) at human GLP-1 receptor came out at 380 nM. Also, the inhibition at 2.5 h, 10 µM at hERG is 2.7%.
Regarding `O=C(O)c1ccc2nc(Cc3ccc(-c4cccc(OCc5ccc(F)c(F)c5)n4)c(F)c3)n(CC3CCCO3)c2c1` (stereo not shown) [Example 98, 2-(4-(6-(3,4-difluorobenzyloxy)pyridin-2-yl)-3-fluorobenzyl)-1-((tetrahydrofuran-2-yl)methyl)-1H-benzo[d]imidazole-6-carboxylic acid], the concentration for a half-maximal effect (EC50) at human GLP-1 receptor is 61 nM. Moreover, the inhibition at 2.5 h, 10 µM on hERG is -2.76%.
For `N#Cc1ccc(COc2cccc(-c3ccc(Cc4nc5ccc(C(=O)O)cc5n4C[C@@H]4CCO4)c(F)c3F)n2)c(F)c1` [Example 113, (S)-2-(4-(6-((4-cyano-2-fluorobenzyl)oxy)pyridin-2-yl)-2,3-difluorobenzyl)-1-(oxetan-2-ylmethyl)-1H-benzo[d]imidazole-6-carboxylic acid], the EC50 on human GLP-1 receptor was below 3.2 nM. Besides, the inhibition at 2.5 h, 10 µM on hERG was -4.94%.
For the compound `O=C(O)c1ccc2nc(Cc3ccc(-c4cccc(OCc5nc6ccccc6s5)n4)c(F)c3)n(C[C@@H]3CCO3)c2c1` [Example 132, (S)-2-(4-(6-(benzo[d]thiazol-2-ylmethoxy)pyridin-2-yl)-3-fluorobenzyl)-1-(oxetan-2-ylmethyl)-1H-benzo[d]imidazole-6-carboxylic acid], on human GLP-1 receptor, the EC50 worked out at 460 nM. Moreover, the inhibition at 2.5 h, 10 µM on hERG was -7.11%.
On to `O=C(O)c1ccc2nc(Cc3ccc(-c4ccc(F)c(OCc5ccc(Cl)cc5F)c4)cc3F)n(CC3CCCO3)c2c1` (stereo not shown) [Example 95, 2-((3′-(4-chloro-2-fluorobenzyloxy)-3,4′-difluorobiphenyl-4-yl)methyl)-1-((tetrahydrofuran-2-yl)methyl)-1H-benzo[d]imidazole-6-carboxylic acid], for which the EC50 on human GLP-1 receptor was found to be 100 nM. For the same compound, the inhibition at 2.5 h, 10 µM on hERG is -38.2%.
For the compound `O=C(O)c1ccc2nc(Cn3ccc(-c4cccc(OCc5ccc(Cl)cc5F)n4)cc3=O)n(CC3CCO3)c2c1` (stereo not shown) [Example 127, 2-((6-((4-chloro-2-fluorobenzyl)oxy)-2′-oxo-[2,4′-bipyridin]-1′(2′H)-yl)methyl)-1-(oxetan-2-ylmethyl)-1H-benzo[d]imidazole-6-carboxylic acid], the EC50 on human GLP-1 receptor came to 20 nM. For the same compound, the inhibition at 2.5 h, 10 µM on hERG was 2.3%.
As to `O=C(O)c1ccc2nc(Cc3ccc(-c4cccc(OCc5ccc(F)c(F)c5)n4)c(F)c3)n(C[C@@H]3CCO3)c2c1` [Example 125, (S)-2-(4-(6-((3,4-difluorobenzyl)oxy)pyridin-2-yl)-3-fluorobenzyl)-1-(oxetan-2-ylmethyl)-1H-benzo[d]imidazole-6-carboxylic acid], on human GLP-1 receptor, the EC50 worked out at 37 nM. In addition, the inhibition at 2.5 h, 10 µM at hERG is -19.5%.
The like results for `O=C(O)c1ccc2nc(Cc3ccc(-c4cccc(OCc5ccc(Cl)cc5F)n4)c(F)c3)n(Cc3cnco3)c2c1` [Example 35, 2-(4-(6-(4-chloro-2-fluorobenzyloxy)pyridin-2-yl)-3-fluorobenzyl)-1-(oxazol-5-ylmethyl)-1H-benzo[d]imidazole-6-carboxylic acid] were, in that order, 9 nM and -3.82%.
With `N#Cc1ccc(COc2cccc(-c3ccc(Cc4nc5ccc(C(=O)O)cc5n4C[C@@H]4CCO4)cc3F)n2)c(F)c1` [Example 74, (S)-2-(4-(6-(4-cyano-2-fluorobenzyloxy)pyridin-2-yl)-3-fluorobenzyl)-1-(oxetan-2-ylmethyl)-1H-benzo[d]imidazole-6-carboxylic acid], the EC50 at human GLP-1 receptor stood at 5.8 nM. The inhibition at 2.5 h, 10 µM on hERG is -16.2%.
For `O=C(O)c1ccc2nc(Cc3ccc(-c4cccc(OCc5ccc(Cl)cc5F)c4)cc3)n(CC3CCCO3)c2c1` (stereo not shown) [Example 24, 2-((3′-(4-chloro-2-fluorobenzyloxy)biphenyl-4-yl)methyl)-1-((tetrahydrofuran-2-yl)methyl)-1H-benzo[d]imidazole-6-carboxylic acid], the EC50 on human GLP-1 receptor was found to be 130 nM. For the same compound, the inhibition at 2.5 h, 10 µM at hERG is -7.68%.
For the compound `O=C(O)c1ccc2nc(Cc3ccc(-c4cccc(OCc5ccc(Cl)cc5F)n4)cc3F)n(C[C@H]3CCCO3)c2c1` [Example 51, (R)-2-(4-(6-(4-chloro-2-fluorobenzyloxy)pyridin-2-yl)-2-fluorobenzyl)-1-((tetrahydrofuran-2-yl)methyl)-1H-benzo[d]imidazole-6-carboxylic acid], the EC50 on human GLP-1 receptor worked out at 52 nM. Besides, the inhibition at 2.5 h, 10 µM on hERG is -4.69%.
With `Cc1cccc(COc2cccc(-c3ccc(Cc4nc5ccc(C(=O)O)cc5n4CC4CCCO4)c(F)c3)n2)c1` (stereo not shown) [Example 80, 2-(2-fluoro-4-(6-(3-methylbenzyloxy)pyridin-2-yl)benzyl)-1-((tetrahydrofuran-2-yl)methyl)-1H-benzo[d]imidazole-6-carboxylic acid], on human GLP-1 receptor, the EC50 was 190 nM. Moreover, on hERG, the inhibition at 2.5 h, 10 µM is -25.2%.
Turning to `COCCn1c(Cc2ccc(-c3cccc(OCc4ccc(Cl)cc4F)n3)cc2)nc2ccc(C(=O)O)cc21` [Example 2, 2-(4-(6-(4-chloro-2-fluorobenzyloxy)pyridin-2-yl)benzyl)-1-(2-methoxyethyl)-1H-benzo[d]imidazole-6-carboxylic acid], at human GLP-1 receptor, the EC50 stood at 63 nM. On hERG, the inhibition at 2.5 h, 10 µM was -11.9%.
